Test results published in ChEMBL document CHEMBL5303573, “Mapping human microbiome drug metabolism by gut bacteria and their genes” (Nature, 2019).

Test system: not listed separately
Experiment: The drug is tested on the gut metagenome community of MV21 with ENA study accession number: PRJEB31790 and ENA sample accession number: SAMEA5537502 for biotransformation. The drug concentrations were measured over 9 timepoints collected between 0 and 24 hours of incubation by liquid-chromatography-coupled mass spectrometry (LC–MS)
Assay type: ADME
Set-up: dose 2 uM, timepoint 0, 1, 2, 4, 6, 8, 12, 18, 24 hours
Conditions: 2 µM
With `CC(=O)OCC(CCn1cnc2cnc(N)nc21)COC(C)=O` [FAMCICLOVIR] the “Bacterial Biotransformation” value was “Compound metabolized”. In the case of `C#C[C@]1(OC(C)=O)CC[C@H]2[C@@H]3CCC4=CC(=O)CC[C@@H]4[C@H]3CC[C@@]21C` [NORETHINDRONE ACETATE], the “Bacterial Biotransformation” value is reported as “Compound metabolized”.

Test system: not listed separately
Experiment: The drug is tested on the gut metagenome community of MV13 with ENA study accession number: PRJEB31790 and ENA sample accession number: SAMEA5537494 for biotransformation. The drug concentrations were measured over 9 timepoints collected between 0 and 24 hours of incubation by liquid-chromatography-coupled mass spectrometry (LC–MS)
Assay type: ADME
Set-up: dose 2 uM, timepoint 0, 1, 2, 4, 6, 8, 12, 18, 24 hours
Conditions: 2 µM
In the case of `CC(=O)OCC(CCn1cnc2cnc(N)nc21)COC(C)=O` [FAMCICLOVIR], the “Bacterial Biotransformation” value is reported as “Compound metabolized”. With `C#C[C@]1(OC(C)=O)CC[C@H]2[C@@H]3CCC4=CC(=O)CC[C@@H]4[C@H]3CC[C@@]21C` [NORETHINDRONE ACETATE] the “Bacterial Biotransformation” value was “Compound metabolized”.

Test system: not listed separately
Experiment: The drug is tested on the gut metagenome community of MV10 with ENA study accession number: PRJEB31790 and ENA sample accession number: SAMEA5537491 for biotransformation. The drug concentrations were measured over 9 timepoints collected between 0 and 24 hours of incubation by liquid-chromatography-coupled mass spectrometry (LC–MS)
Assay type: ADME
Set-up: dose 2 uM, timepoint 0, 1, 2, 4, 6, 8, 12, 18, 24 hours
Conditions: 2 µM
For `CC(=O)OCC(CCn1cnc2cnc(N)nc21)COC(C)=O` [FAMCICLOVIR], the “Bacterial Biotransformation” value was “Compound metabolized”. In the case of `C#C[C@]1(OC(C)=O)CC[C@H]2[C@@H]3CCC4=CC(=O)CC[C@@H]4[C@H]3CC[C@@]21C` [NORETHINDRONE ACETATE], the “Bacterial Biotransformation” value is reported as “Compound metabolized”.

Test system: not listed separately
Experiment: The drug is tested on the gut metagenome community of MV14 with ENA study accession number: PRJEB31790 and ENA sample accession number: SAMEA5537495 for biotransformation. The drug concentrations were measured over 9 timepoints collected between 0 and 24 hours of incubation by liquid-chromatography-coupled mass spectrometry (LC–MS)
Assay type: ADME
Set-up: dose 2 uM, timepoint 0, 1, 2, 4, 6, 8, 12, 18, 24 hours
Conditions: 2 µM
For `CC(=O)OCC(CCn1cnc2cnc(N)nc21)COC(C)=O` [FAMCICLOVIR], the “Bacterial Biotransformation” value was “Compound metabolized”. With `C#C[C@]1(OC(C)=O)CC[C@H]2[C@@H]3CCC4=CC(=O)CC[C@@H]4[C@H]3CC[C@@]21C` [NORETHINDRONE ACETATE] the “Bacterial Biotransformation” value was “Compound metabolized”.

Test system: not listed separately
Experiment: The drug is tested on the gut metagenome community of MV26 with ENA study accession number: PRJEB31790 and ENA sample accession number: SAMEA5537507 for biotransformation. The drug concentrations were measured over 9 timepoints collected between 0 and 24 hours of incubation by liquid-chromatography-coupled mass spectrometry (LC–MS)
Assay type: ADME
Set-up: dose 2 uM, timepoint 0, 1, 2, 4, 6, 8, 12, 18, 24 hours
Conditions: 2 µM
In the case of `CC(=O)OCC(CCn1cnc2cnc(N)nc21)COC(C)=O` [FAMCICLOVIR], the “Bacterial Biotransformation” value is reported as “Compound metabolized”. With `C#C[C@]1(OC(C)=O)CC[C@H]2[C@@H]3CCC4=CC(=O)CC[C@@H]4[C@H]3CC[C@@]21C` [NORETHINDRONE ACETATE] the “Bacterial Biotransformation” value was “Compound metabolized”.

Test system: not listed separately
Experiment: The drug is tested on the gut metagenome community of MV16 with ENA study accession number: PRJEB31790 and ENA sample accession number: SAMEA5537497 for biotransformation. The drug concentrations were measured over 9 timepoints collected between 0 and 24 hours of incubation by liquid-chromatography-coupled mass spectrometry (LC–MS)
Assay type: ADME
Set-up: dose 2 uM, timepoint 0, 1, 2, 4, 6, 8, 12, 18, 24 hours
Conditions: 2 µM
For `CC(=O)OCC(CCn1cnc2cnc(N)nc21)COC(C)=O` [FAMCICLOVIR], the “Bacterial Biotransformation” value was “Compound metabolized”. For `C#C[C@]1(OC(C)=O)CC[C@H]2[C@@H]3CCC4=CC(=O)CC[C@@H]4[C@H]3CC[C@@]21C` [NORETHINDRONE ACETATE], the “Bacterial Biotransformation” value was “Compound metabolized”.

Molecular target: T1, GDSL-like protein (Collinsella aerofaciens, UniProt A4E7D0)
T1 sequence (A4E7D0 whole entry): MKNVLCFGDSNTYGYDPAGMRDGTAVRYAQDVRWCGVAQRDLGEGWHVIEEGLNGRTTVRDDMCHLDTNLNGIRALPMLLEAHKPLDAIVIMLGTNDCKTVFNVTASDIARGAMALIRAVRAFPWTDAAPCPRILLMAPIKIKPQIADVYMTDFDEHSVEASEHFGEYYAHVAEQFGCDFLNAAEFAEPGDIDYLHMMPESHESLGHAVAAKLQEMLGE
Experiment: (§1) The drug is tested on Collinsella aerofaciens strain: ATCC25986 for biotransformation. The drug concentrations were measured before and after a 12-h incubation by liquid-chromatography-coupled mass spectrometry (LC–MS)
Assay type: ADME
Set-up: dose 2 uM
Conditions: 2 µM
In the case of `CC(=O)OCC(CCn1cnc2cnc(N)nc21)COC(C)=O` [FAMCICLOVIR], the “Bacterial Biotransformation” value is reported as “Compound NOT metabolized”. In the case of `C#C[C@]1(OC(C)=O)CC[C@H]2[C@@H]3CCC4=CC(=O)CC[C@@H]4[C@H]3CC[C@@]21C` [NORETHINDRONE ACETATE], the “Bacterial Biotransformation” value is reported as “Compound NOT metabolized”.

Molecular target: T2, Pyridine nucleotide-disulfide oxidoreductase (Collinsella aerofaciens, UniProt A4EBM5)
T2 sequence (A4EBM5 whole entry): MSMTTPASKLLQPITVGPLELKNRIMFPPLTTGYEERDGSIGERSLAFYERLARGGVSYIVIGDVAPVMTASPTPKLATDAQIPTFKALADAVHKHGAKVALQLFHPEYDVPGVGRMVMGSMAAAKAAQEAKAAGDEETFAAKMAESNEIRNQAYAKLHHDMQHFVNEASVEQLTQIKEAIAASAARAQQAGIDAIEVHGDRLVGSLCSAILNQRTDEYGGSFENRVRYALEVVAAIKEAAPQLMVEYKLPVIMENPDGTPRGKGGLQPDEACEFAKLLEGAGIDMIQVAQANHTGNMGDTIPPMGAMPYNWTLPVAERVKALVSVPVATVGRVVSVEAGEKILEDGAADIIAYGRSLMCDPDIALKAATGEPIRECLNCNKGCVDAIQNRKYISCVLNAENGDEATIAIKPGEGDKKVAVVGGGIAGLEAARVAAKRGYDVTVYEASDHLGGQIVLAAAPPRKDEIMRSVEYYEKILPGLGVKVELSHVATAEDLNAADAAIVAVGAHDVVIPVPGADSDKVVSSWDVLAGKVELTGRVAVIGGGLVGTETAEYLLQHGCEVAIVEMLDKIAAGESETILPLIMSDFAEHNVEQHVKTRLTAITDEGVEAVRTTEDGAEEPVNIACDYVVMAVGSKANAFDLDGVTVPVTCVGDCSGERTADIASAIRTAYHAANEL
Experiment: as §1
Assay type: ADME
Set-up: dose 2 uM
Conditions: 2 µM
With `CC(=O)OCC(CCn1cnc2cnc(N)nc21)COC(C)=O` [FAMCICLOVIR] the “Bacterial Biotransformation” value was “Compound NOT metabolized”. For `C#C[C@]1(OC(C)=O)CC[C@H]2[C@@H]3CCC4=CC(=O)CC[C@@H]4[C@H]3CC[C@@]21C` [NORETHINDRONE ACETATE], the “Bacterial Biotransformation” value was “Compound NOT metabolized”.

Molecular target: T3, GDSL-like protein (Collinsella aerofaciens, UniProt A4E8S4)
T3 sequence (A4E8S4 whole entry): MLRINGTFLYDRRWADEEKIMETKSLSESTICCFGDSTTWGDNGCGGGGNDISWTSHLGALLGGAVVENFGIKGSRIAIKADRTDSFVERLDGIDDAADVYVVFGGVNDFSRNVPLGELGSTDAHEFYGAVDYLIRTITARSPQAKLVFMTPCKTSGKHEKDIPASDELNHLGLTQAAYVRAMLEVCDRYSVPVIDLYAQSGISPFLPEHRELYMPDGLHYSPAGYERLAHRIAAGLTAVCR
Experiment: as §1
Assay type: ADME
Set-up: dose 2 uM
Conditions: 2 µM
With `CC(=O)OCC(CCn1cnc2cnc(N)nc21)COC(C)=O` [FAMCICLOVIR] the “Bacterial Biotransformation” value was “Compound metabolized”. For `C#C[C@]1(OC(C)=O)CC[C@H]2[C@@H]3CCC4=CC(=O)CC[C@@H]4[C@H]3CC[C@@]21C` [NORETHINDRONE ACETATE], the “Bacterial Biotransformation” value was “Compound NOT metabolized”.

Molecular target: T4, Diguanylate cyclase (Collinsella aerofaciens, UniProt A4EB91)
T4 sequence (A4EB91 whole entry): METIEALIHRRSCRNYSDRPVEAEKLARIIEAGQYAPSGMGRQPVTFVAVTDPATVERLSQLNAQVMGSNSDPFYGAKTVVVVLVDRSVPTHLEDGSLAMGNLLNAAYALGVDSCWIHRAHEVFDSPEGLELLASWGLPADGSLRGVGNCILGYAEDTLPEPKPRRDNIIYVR
Experiment: as §1
Assay type: ADME
Set-up: dose 2 uM
Conditions: 2 µM
With `CC(=O)OCC(CCn1cnc2cnc(N)nc21)COC(C)=O` [FAMCICLOVIR] the “Bacterial Biotransformation” value was “Compound NOT metabolized”. With `C#C[C@]1(OC(C)=O)CC[C@H]2[C@@H]3CCC4=CC(=O)CC[C@@H]4[C@H]3CC[C@@]21C` [NORETHINDRONE ACETATE] the “Bacterial Biotransformation” value was “Compound NOT metabolized”.

Molecular target: T5, Flavodoxin (Collinsella aerofaciens, UniProt A4ED08)
T5 sequence (A4ED08 whole entry): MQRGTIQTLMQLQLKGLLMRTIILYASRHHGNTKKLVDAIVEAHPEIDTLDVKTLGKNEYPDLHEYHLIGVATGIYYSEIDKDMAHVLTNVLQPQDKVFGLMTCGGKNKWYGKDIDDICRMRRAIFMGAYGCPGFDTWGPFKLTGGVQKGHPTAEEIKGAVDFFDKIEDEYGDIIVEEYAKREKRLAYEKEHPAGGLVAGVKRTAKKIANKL
Experiment: as §1
Assay type: ADME
Set-up: dose 2 uM
Conditions: 2 µM
With `CC(=O)OCC(CCn1cnc2cnc(N)nc21)COC(C)=O` [FAMCICLOVIR] the “Bacterial Biotransformation” value was “Compound NOT metabolized”. With `C#C[C@]1(OC(C)=O)CC[C@H]2[C@@H]3CCC4=CC(=O)CC[C@@H]4[C@H]3CC[C@@]21C` [NORETHINDRONE ACETATE] the “Bacterial Biotransformation” value was “Compound NOT metabolized”.

Test system: not listed separately
Experiment: The drug is tested on the gut metagenome community of MV03 with ENA study accession number: PRJEB31790 and ENA sample accession number: SAMEA5537484 for biotransformation. The drug concentrations were measured over 9 timepoints collected between 0 and 24 hours of incubation by liquid-chromatography-coupled mass spectrometry (LC–MS)
Assay type: ADME
Set-up: dose 2 uM, timepoint 0, 1, 2, 4, 6, 8, 12, 18, 24 hours
Conditions: 2 µM
For `CC(=O)OCC(CCn1cnc2cnc(N)nc21)COC(C)=O` [FAMCICLOVIR], the “Bacterial Biotransformation” value was “Compound metabolized”. In the case of `C#C[C@]1(OC(C)=O)CC[C@H]2[C@@H]3CCC4=CC(=O)CC[C@@H]4[C@H]3CC[C@@]21C` [NORETHINDRONE ACETATE], the “Bacterial Biotransformation” value is reported as “Compound metabolized”.

Test system: not listed separately
Experiment: The drug is tested on the gut metagenome community of MV11 with ENA study accession number: PRJEB31790 and ENA sample accession number: SAMEA5537492 for biotransformation. The drug concentrations were measured over 9 timepoints collected between 0 and 24 hours of incubation by liquid-chromatography-coupled mass spectrometry (LC–MS)
Assay type: ADME
Set-up: dose 2 uM, timepoint 0, 1, 2, 4, 6, 8, 12, 18, 24 hours
Conditions: 2 µM
For `CC(=O)OCC(CCn1cnc2cnc(N)nc21)COC(C)=O` [FAMCICLOVIR], the “Bacterial Biotransformation” value was “Compound metabolized”. With `C#C[C@]1(OC(C)=O)CC[C@H]2[C@@H]3CCC4=CC(=O)CC[C@@H]4[C@H]3CC[C@@]21C` [NORETHINDRONE ACETATE] the “Bacterial Biotransformation” value was “Compound metabolized”.
